In PMC10761937, “Functional engineering of human iPSC‐derived parasympathetic neurons enhances responsiveness to gastrointestinal hormones” (FEBS Open Bio, 2023):

Test system: GLP1R‐neurons
Test: MEA recording of neuronal firing, GLP1R‐neurons
Type: cell-based, human
Details: 10 nM GLP1; day 27; 0 nM n = 31 electrodes, 10 nM n = 34 electrodes; 5 min before and after ligand addition
Protocol: Before initiating differentiation, the iPSCs (1–2 × 10^5 cells·cm^−2; Cell lines and cell culture section) were transferred to 6‐well plates (Corning, Inc., Corning, NY, USA) coated with 2‐methacryloyloxyethyl phosphorylcholine (MPC) polymer (Lipidure CM5206E; NOF, Tokyo, Japan). The cells were maintained in mTeSR1 cGMP medium containing 10 μM Y‐27632 (Fujifilm Wako Pure Chemical Industries) for 2 or 3 days to form embryoid body (EBs) in a rotary shaker at 95 r.p.m. (OS‐762RC; Optime, Tokyo, Japan). Subsequently, iPSCs were differentiated into neural crest cells (NCCs), as previously reported. Briefly, NCCs were induced from Ebs using knockout serum replacement (KSR) medium and N2 medium with graded addition of nerve growth factors and signaling factors. KSR medium was composed of DMEM‐F12 (Fujifilm Wako Pure Chemical Industries), 20% KSR (Thermo Fisher Scientific), 1% NEAA, 1% monothioglycerol (Fujifilm Wako Pure Chemical Industries), and 1% P/S. N2 medium consisted of DMEM‐F12, 1% N2 supplement (Fujifilm Wako Pure Chemical Industries), 1% NEAA, and 1% P/S. When EB formation was considered day 0 of induction, the medium was changed at days 2, 5, 7, 9, and 12. […]

Substance: GLP1: GLP1 (4280‐v; Peptide Institute, Inc.); GLP1 (7–37) in Ca2+ imaging (HAEGTFTSDVSSYLEGQAAKEFIAWLVKGRG; Glucagon-like peptide 1(7-37); UniProt P01275 98-128, looked up)
- Change rate of firing frequency: increased the change rate of firing frequency
